Experimental data taken from paper PMC7044277 (Nature Communications, 2020).
Several values for one entry are separate records, joined by “and”; a condition that tells them apart may be missing. Equal entries are not always repeated. Where two headings read alike, the source gives them in different places.

How the values were obtained:
DRD2 (D2 long receptor) = DRD2 (D2 long receptor) (Homo sapiens, UniProt P14416); assay: β-arrestin2 recruitment (Tango), HTLA cells; type: cell-based; conditions: for Response, Fig_S11c dose-response: individual replicates
Sequence of DRD2 (D2 long receptor) (P14416 whole entry): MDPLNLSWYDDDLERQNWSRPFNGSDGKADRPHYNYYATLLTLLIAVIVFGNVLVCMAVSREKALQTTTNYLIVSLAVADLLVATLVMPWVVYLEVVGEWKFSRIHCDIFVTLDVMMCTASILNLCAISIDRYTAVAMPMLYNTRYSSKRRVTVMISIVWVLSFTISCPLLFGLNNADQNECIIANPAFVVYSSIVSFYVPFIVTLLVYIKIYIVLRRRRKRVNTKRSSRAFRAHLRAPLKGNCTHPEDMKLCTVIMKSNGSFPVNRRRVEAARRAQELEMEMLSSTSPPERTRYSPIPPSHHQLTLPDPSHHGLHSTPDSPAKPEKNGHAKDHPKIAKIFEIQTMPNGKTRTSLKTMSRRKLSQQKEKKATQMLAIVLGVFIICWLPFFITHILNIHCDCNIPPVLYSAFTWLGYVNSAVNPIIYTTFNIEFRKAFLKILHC

DRD4 (D4.4 variant) = target: T1, DRD4 (D4.4 variant) (Homo sapiens, UniProt P21917); assay: β-arrestin2 recruitment (Tango); type: cell-based; conditions: DRD4; Tango; read-out: EC50 ± SEM
T1 sequence (P21917 1-419): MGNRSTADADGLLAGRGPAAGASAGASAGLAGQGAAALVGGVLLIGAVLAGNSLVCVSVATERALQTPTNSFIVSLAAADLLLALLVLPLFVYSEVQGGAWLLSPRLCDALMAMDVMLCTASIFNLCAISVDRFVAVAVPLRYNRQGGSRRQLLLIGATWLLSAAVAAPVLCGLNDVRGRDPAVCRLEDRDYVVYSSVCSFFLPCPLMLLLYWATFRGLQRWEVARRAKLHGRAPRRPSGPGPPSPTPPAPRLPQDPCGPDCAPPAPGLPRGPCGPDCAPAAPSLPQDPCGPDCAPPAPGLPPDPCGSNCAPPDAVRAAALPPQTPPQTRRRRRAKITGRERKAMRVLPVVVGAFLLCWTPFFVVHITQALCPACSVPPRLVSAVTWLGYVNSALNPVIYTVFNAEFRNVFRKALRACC

320 non-olfactory GPCRs = type: cell-based; conditions: replicate values, Fig_4g;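 note: fold over basal response of each receptor without drug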
DRD2 F1103.28A = DRD2 F1103.28A (Homo sapiens, UniProt P14416, F110A); type: binding; parameters: expressed in transfected cells; host or cells: HEK293T (ATCC CRL-11268)
Sequence of DRD2 F1103.28A (P14416 whole entry F110A): as the sequence (P14416 whole entry) above, with F110A counted along it

CCOc1cccc2cc(C(C)NCC3(O)CCCCC3)oc12 (stereo not drawn) [O4LE6]
EC50 (DRD2 (D2 long receptor); DRD2, β-arrestin2 recruitment (Tango), read-out: EC50 ± SEM): 43.2 ± 12.3 nM
response, Fig_S11c dose-response source data (DRD2 (D2 long receptor); Fig_S11c, Log[Drug] -5, replicate values): 112.633 and 105.275 and 98.5438 and 105.099 and 112.565
response, Fig_S11e dose-response source data (DRD2 (D2 long receptor); Log[Drug] -6.52, replicate values): 78.7922
response, Fig_S11e dose-response source data (DRD2 (D2 long receptor); Log[Drug] -7, replicate values): 72.0078 and 74.6368 and 66.9645 and 59.2359 and 63.6719 and 58.7266 and 59.326 and 73.941 and 65.8379
response, Fig_S11e dose-response source data (DRD2 (D2 long receptor); Log[Drug] -7.52, replicate values): 37.8418 and 44.9592 and 58.6118 and 43.0054 and 55.0074 and 48.586 and 48.419 and 72.5528 and 64.0624
response, Fig_S11e dose-response source data (DRD2 (D2 long receptor); Log[Drug] -8, replicate values): 15.3268 and 15.1148 and 16.7449 and 27.4037 and 26.6311 and 23.8074 and 19.9269 and 24.9446 and 21.2413
response, Fig_S11e dose-response source data (DRD2 (D2 long receptor); Log[Drug] -8.52, replicate values): 4.375 and 3.995 and 5.741 and 6.567 and 6.611 and 6.201 and 5.912 and 5.884 and 4.408
response, Fig_S11e dose-response source data (DRD2 (D2 long receptor); Log[Drug] -9, replicate values): 3.657 and 3.173 and 3.675 and 2.9749 and 3.073 and 3.47 and 2.665 and 3.951 and 5.063
response, Fig_S11e dose-response source data (DRD2 (D2 long receptor); Log[Drug] -9.52, replicate values): 2.783 and 2.8126 and 2.809 and 2.846 and 2.583 and 2.72 and 1.765 and 1.2028 and 2.471
response, Fig_S11e dose-response source data (DRD2 (D2 long receptor); Log[Drug] -10, replicate values): 3.027 and 2.494 and 2.707 and 2.723 and 2.793 and 2.57 and 1.765 and 1.586 and 1.567
response, Fig_S11e dose-response source data (DRD2 (D2 long receptor); Log[Drug] -10.52, replicate values): 2.869 and 2.577 and 2.7076 and 2.741 and 2.285 and 2.767 and 1.576 and 1.95 and 2.499
response, Fig_S11e dose-response source data (DRD2 (D2 long receptor); Log[Drug] -11, replicate values): 2.286 and 2.31 and 2.497 and 2.358 and 2.303 and 2.397 and 3.984 and 1.567 and 2.499
response, Fig_S11e dose-response source data (DRD2 (D2 long receptor); Log[Drug] -11.52, replicate values): 2.417 and 3.403 and 2.6551 and 2.344 and 2.523 and 2.357 and 1.752 and 2.8723 and 2.669
response, Fig_S11e dose-response source data (DRD2 (D2 long receptor); Log[Drug] -12, replicate values): 2.236 and 2.366 and 2.369 and 2.676 and 2.167 and 2.127 and 2.148 and 1.023 and 3.799
Emax (DRD2 (D2 long receptor); HTLA, read-out: Emax relative to quinpirole response, DRD2, Tango): 105%
β-arrestin2 recruitment response at DRD2 (source data, replicate values) (DRD2 (D2 long receptor); Log[Drug] -6.52): 78.7922
Response, Fig_S11c dose-response (DRD2 (D2 long receptor); Log[Drug] -6.52): 78.7922
β-arrestin2 recruitment response at DRD2 (source data, replicate values) (DRD2 (D2 long receptor); Log[Drug] -7): 72.0078 and 74.6368 and 66.9645 and 59.2359 and 63.6719 and 58.7266 and 59.326 and 73.941 and 65.8379
Response, Fig_S11c dose-response (DRD2 (D2 long receptor); Log[Drug] -7): 72.0078 and 74.6368 and 66.9645 and 59.2359 and 63.6719 and 58.7266 and 59.326 and 73.941 and 65.8379
β-arrestin2 recruitment response at DRD2 (source data, replicate values) (DRD2 (D2 long receptor); Log[Drug] -7.52): 37.8418 and 44.9592 and 58.6118 and 43.0054 and 55.0074 and 48.586 and 48.419 and 72.5528 and 64.0624
Response, Fig_S11c dose-response (DRD2 (D2 long receptor); Log[Drug] -7.52): 37.8418 and 44.9592 and 58.6118 and 43.0054 and 55.0074 and 48.586 and 48.419 and 72.5528 and 64.0624
β-arrestin2 recruitment response at DRD2 (source data, replicate values) (DRD2 (D2 long receptor); Log[Drug] -8): 15.3268 and 15.1148 and 16.7449 and 27.4037 and 26.6311 and 23.8074 and 19.9269 and 24.9446 and 21.2413
Response, Fig_S11c dose-response (DRD2 (D2 long receptor); Log[Drug] -8): 15.3268 and 15.1148 and 16.7449 and 27.4037 and 26.6311 and 23.8074 and 19.9269 and 24.9446 and 21.2413
β-arrestin2 recruitment response at DRD2 (source data, replicate values) (DRD2 (D2 long receptor); Log[Drug] -8.52): 4.375 and 3.995 and 5.741 and 6.567 and 6.611 and 6.201 and 5.912 and 5.884 and 4.408
Response, Fig_S11c dose-response (DRD2 (D2 long receptor); Log[Drug] -8.52): 4.375 and 3.995 and 5.741 and 6.567 and 6.611 and 6.201 and 5.912 and 5.884 and 4.408
β-arrestin2 recruitment response at DRD2 (source data, replicate values) (DRD2 (D2 long receptor); Log[Drug] -9): 3.657 and 3.173 and 3.675 and 2.9749 and 3.073 and 3.47 and 2.665 and 3.951 and 5.063
Response, Fig_S11c dose-response (DRD2 (D2 long receptor); Log[Drug] -9): 3.657 and 3.173 and 3.675 and 2.9749 and 3.073 and 3.47 and 2.665 and 3.951 and 5.063
β-arrestin2 recruitment response at DRD2 (source data, replicate values) (DRD2 (D2 long receptor); Log[Drug] -9.52): 2.783 and 2.8126 and 2.809 and 2.846 and 2.583 and 2.72 and 1.765 and 1.2028 and 2.471
Response, Fig_S11c dose-response (DRD2 (D2 long receptor); Log[Drug] -9.52): 2.783 and 2.8126 and 2.809 and 2.846 and 2.583 and 2.72 and 1.765 and 1.2028 and 2.471
β-arrestin2 recruitment response at DRD2 (source data, replicate values) (DRD2 (D2 long receptor); Log[Drug] -10): 3.027 and 2.494 and 2.707 and 2.723 and 2.793 and 2.57 and 1.765 and 1.586 and 1.567
Response, Fig_S11c dose-response (DRD2 (D2 long receptor); Log[Drug] -10): 3.027 and 2.494 and 2.707 and 2.723 and 2.793 and 2.57 and 1.765 and 1.586 and 1.567
β-arrestin2 recruitment response at DRD2 (source data, replicate values) (DRD2 (D2 long receptor); Log[Drug] -10.52): 2.869 and 2.577 and 2.7076 and 2.741 and 2.285 and 2.767 and 1.576 and 1.95 and 2.499
Response, Fig_S11c dose-response (DRD2 (D2 long receptor); Log[Drug] -10.52): 2.869 and 2.577 and 2.7076 and 2.741 and 2.285 and 2.767 and 1.576 and 1.95 and 2.499
β-arrestin2 recruitment response at DRD2 (source data, replicate values) (DRD2 (D2 long receptor); Log[Drug] -11): 2.286 and 2.31 and 2.497 and 2.358 and 2.303 and 2.397 and 3.984 and 1.567 and 2.499
Response, Fig_S11c dose-response (DRD2 (D2 long receptor); Log[Drug] -11): 2.286 and 2.31 and 2.497 and 2.358 and 2.303 and 2.397 and 3.984 and 1.567 and 2.499
β-arrestin2 recruitment response at DRD2 (source data, replicate values) (DRD2 (D2 long receptor); Log[Drug] -11.52): 2.417 and 3.403 and 2.6551 and 2.344 and 2.523 and 2.357 and 1.752 and 2.8723 and 2.669
Response, Fig_S11c dose-response (DRD2 (D2 long receptor); Log[Drug] -11.52): 2.417 and 3.403 and 2.6551 and 2.344 and 2.523 and 2.357 and 1.752 and 2.8723 and 2.669
β-arrestin2 recruitment response at DRD2 (source data, replicate values) (DRD2 (D2 long receptor); Log[Drug] -12): 2.236 and 2.366 and 2.369 and 2.676 and 2.167 and 2.127 and 2.148 and 1.023 and 3.799
Response, Fig_S11c dose-response (DRD2 (D2 long receptor); Log[Drug] -12): 2.236 and 2.366 and 2.369 and 2.676 and 2.167 and 2.127 and 2.148 and 1.023 and 3.799
EC50 (DRD4 (D4.4 variant)): > 10000 nM
GPCRome agonism screen response (320 non-olfactory GPCRs; receptor LTB4R2B): 0.6938 and 0.9232 and 0.5075
GPCRome agonism screen response (320 non-olfactory GPCRs; receptor NPS): 0.4686 and 1.378 and 0.7119 and 0.6607
GPCRome agonism screen response (320 non-olfactory GPCRs; receptor PK1): 0.8997 and 0.9125 and 0.8846 and 0.857
GPCRome agonism screen response (320 non-olfactory GPCRs; receptor PRRP): 0.431 and 1.1359 and 1.866 and 0.5549
GPCRome agonism screen response (320 non-olfactory GPCRs; receptor QRFP): 0.8017 and 1.022 and 0.9768 and 1
GPCRome agonism screen response (320 non-olfactory GPCRs; receptor SSSTR): 0.8501 and 0.9752 and 2.465 and 0.6314
Ki (DRD2 F1103.28A; DRD2 F1103.28A, read-out: Ki): 720 nM
affinity increase (binding enhanced), mutant vs wild type (DRD2 F1103.28A; DRD2 Phe110^3.28Ala vs wild-type DRD2): 2.64 fold
